Assay results reported in patent publication US12187684B2, “Benzimidazole derivatives as modulators of retinoid-related orphan receptor gamma (RORγ) and pharmaceutical use thereof” (Jiangsu Hengrui Medicine Co., Ltd., priority 2018, dated 2025).

Each compound was assayed against T1, RORγ LBD-GST tagged (Homo sapiens, UniProt P51449) (assay: LanthaScreen TR-FRET RORγ coactivator assay). Conditions: Fluorescein-D22 coactivator peptide, 1 hour room temperature.
T1 construct: RORγ LBD-GST tagged (Cat No. RORC-114H, Creative Biomart); purchased Creative Biomart RORC-114H
T1 sequence (P51449 269-508 limits assumed): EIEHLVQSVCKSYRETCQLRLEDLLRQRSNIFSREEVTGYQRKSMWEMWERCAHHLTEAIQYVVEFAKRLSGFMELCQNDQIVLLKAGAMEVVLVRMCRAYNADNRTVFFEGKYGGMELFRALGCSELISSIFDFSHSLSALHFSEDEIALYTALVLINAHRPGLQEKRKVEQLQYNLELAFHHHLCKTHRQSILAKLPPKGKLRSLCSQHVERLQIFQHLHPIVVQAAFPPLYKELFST
Type: biochemical
Excerpt: LanthaScreen TR-FRET Retinoid-Related Orphan Receptor Gamma (RORγ) Coactivator Assay Materials and Reagents • 1. […] Fluorescein-D22 coactivator peptide (Cat No. PV4386, Invitrogen) • 3. LanthaScreen™ Tb anti-GST antibody (Cat No. PV3550, Invitrogen) • 4. TR-FRET coregulatory buffer D (Cat No, PV4420, Invitrogen) • 5. DTT (Cat No. P2325, Fisher) • 6. […] Tecan Infinite M1000 plate reader (Tecan) Experimental Procedure Prepare Complete TR-FRET Coregulator Buffer D by adding 1 M DTT to TR-FRET Coregulator Buffer D to the final concentration of 5 mM DTT. Make compound dilution in Complete TR-FRET Coregulator Buffer D. Highest dose is 3 μM, 7-folder dilution for total 7 doses. Add 10 μL to each well of a 384-well plate. For the negative and positive controls, add 10 μL of Complete TR-FRET Coregulator Buffer D. Prepare RORγ LBD using Complete TR-FRET Coregulator Buffer D. The final concentration of RORγ LBD is 25 ng/reaction. Add 5 μL RORγ LBD to all the wells of the 384-well assay plate except negative wells which adding 5 μL Complete TR-FRET Coregulator Buffer D. Prepare a solution containing 0.6 μM Fluorescein-D22 and 8 nM Tb anti-GST antibody using Complete TR-FRET Coregulator Buffer D. Add 5 μL to all wells of the 384-well assay plate. Briefly and gently mix the 384-well plate on a plate shaker and incubate at room temperature protected from light for 1 hour. The plate may be sealed with a cover to minimize evaporation. Read the plate at wavelengths of 520 nm and 495 nm on Tecan Infinite M1000. IC50 values were calculated using GraphPad Prism by plotting the logarithm of compounds concentration versus percent inhibition.

Compared with `O=S(=O)(CC1CC1)c1ccc(C(O)c2nc3c(Cl)c(-c4ccccc4F)c(Cl)cc3[nH]2)cc1` (stereo not shown) [Example 75, (4-((cyclopropylmethyl)sulfonyl)phenyl)(4,6-dichloro-5-(2-fluorophenyl)-1H-benzo[d]imidazol-2-yl)methanol], `O=S(=O)(CC1CC1)c1ccc(C(O)c2nc3c(Cl)c(-c4ccccc4Cl)c(Cl)cc3[nH]2)cc1` (stereo not shown) [Example 94, (4-((cyclopropylmethyl)sulfonyl)phenyl)(4,6-dichloro-5-(2-chlorophenyl)-1H-benzo[d]imidazol-2-yl)methanol] is 3.8-fold higher in IC50: 0.006 µM for the first, 0.023 µM for the second. The first is the more potent here.

Compared with `CCS(=O)(=O)c1ccc(Cc2nc3c(Cl)c(-c4ccccc4OC(F)(F)F)c(Cl)cc3[nH]2)c(F)c1` [Example 76, 4,6-dichloro-2-(4-(ethylsulfonyl)-2-fluorobenzyl)-5-(2-(trifluoromethoxy)phenyl)-1H-benzo[d]imidazole], `CCS(=O)(=O)c1ccc(Cc2nc3c(Cl)c(-c4ccccc4OC(F)F)c(Cl)cc3[nH]2)c(F)c1` [Example 83, 4,6-dichloro-5-(2-(difluoromethoxy)phenyl)-2-(4-(ethylsulfonyl)-2-fluorobenzyl)-1H-benzo[d]imidazole] is 6-fold lower in IC50: 0.387 µM for the first, 0.065 µM for the second. The second is the more potent here.

Going from `CCS(=O)(=O)c1ccc(C(O)c2nc3c(Cl)c(-c4ccccc4C(F)(F)F)c(Cl)cc3[nH]2)c(F)c1` (stereo not shown) [Example 79, (4,6-dichloro-5-(2-(trifluoromethyl)phenyl)-1H-benzo[d]imidazol-2-yl)(4-(ethylsulfonyl)-2-fluorophenyl)methanol] to `CCS(=O)(=O)c1ccc(C(O)c2nc3c(Cl)c(-c4ccccc4OC(F)F)c(Cl)cc3[nH]2)c(F)c1` (stereo not shown) [Example 85, (4,6-dichloro-5-(2-(difluoromethoxy)phenyl)-1H-benzo[d]imidazol-2-yl)(4-(ethylsulfonyl)-2-fluorophenyl)methanol], the IC50 rises from 0.048 µM to 0.188 µM (3.9-fold).

`O=S(=O)(CC1CC1)c1ccc(C(O)c2nc3c(Cl)c(-c4ccccc4OC(F)(F)F)c(Cl)cc3[nH]2)c(F)c1` (stereo not shown) [Example 82, (4-((cyclopropylmethyl)sulfonyl)-2-fluorophenyl)(4,6-dichloro-5-(2-(trifluoromethoxy)phenyl)-1H-benzo[d]imidazol-2-yl)methanol] and `O=S(=O)(CC1CC1)c1ccc(C(O)c2nc3c(Cl)c(-c4ccccc4OC(F)(F)F)c(Cl)cc3[nH]2)c(Cl)c1` (stereo not shown) [Example 92, (2-chloro-4-((cyclopropylmethyl)sulfonyl)phenyl)(4,6-dichloro-5-(2-(trifluoromethoxy)phenyl)-1H-benzo[d]imidazol-2-yl)methanol] are within 1.5-fold of each other in IC50: 0.046 µM for the first, 0.067 µM for the second.

Compared with `CCS(=O)(=O)c1ccc(C(CO)c2nc3c(Cl)c(-c4ccccc4OC(F)(F)F)c(Cl)cc3[nH]2)c(Cl)c1` (stereo not shown) [Example 87, 2-(2-chloro-4-(ethylsulfonyl)phenyl)-2-(4,6-dichloro-5-(2-(trifluoromethoxy)phenyl)-1H-benzo[d]imidazol-2-yl)ethanol], `CS(=O)(=O)c1ccc(C(CO)c2nc3c(Cl)c(-c4ccccc4OC(F)(F)F)c(Cl)cc3[nH]2)c(Cl)c1` (stereo not shown) [Example 102, 2-(2-chloro-4-(methylsulfonyl)phenyl)-2-(4,6-dichloro-5-(2-(trifluoromethoxy)phenyl)-1H-benzo[d]imidazol-2-yl)ethanol] is 2.6-fold higher in IC50: 0.024 µM for the first, 0.062 µM for the second. The first is the more potent here.

`CCS(=O)(=O)c1ccc(C(O)c2nc3c(Cl)c(-c4ccccc4OC(F)(F)F)c(Cl)cc3[nH]2)c(Cl)c1` (stereo not shown) [Example 88, (2-chloro-4-(ethylsulfonyl)phenyl)(4,6-dichloro-5-(2-(trifluoromethoxy)phenyl)-1H-benzo[d]imidazol-2-yl)methanol] and `CS(=O)(=O)c1ccc(C(O)c2nc3c(Cl)c(-c4ccccc4OC(F)(F)F)c(Cl)cc3[nH]2)c(Cl)c1` (stereo not shown) [Example 103, (2-chloro-4-(methylsulfonyl)phenyl)(4,6-dichloro-5-(2-(trifluoromethoxy)phenyl)-1H-benzo[d]imidazol-2-yl)methanol] are within 1.5-fold of each other in IC50: 0.162 µM for the first, 0.158 µM for the second.

Going from `CCS(=O)(=O)c1ccc(Cc2nc3c(Cl)c(-c4ccccc4OC(F)F)c(Cl)cc3[nH]2)c(Cl)c1` [Example 89, 4,6-dichloro-2-(2-chloro-4-(ethylsulfonyl)benzyl)-5-(2-(difluoromethoxy)phenyl)-1H-benzo[d]imidazole] to `O=S(=O)(CC1CC1)c1ccc(Cc2nc3c(Cl)c(-c4ccccc4OC(F)F)c(Cl)cc3[nH]2)c(F)c1` [Example 98, 4,6-dichloro-2-(4-((cyclopropylmethyl)sulfonyl)-2-fluorobenzyl)-5-(2-(difluoromethoxy)phenyl)-1H-benzo[d]imidazole], the IC50 rises from 0.004 µM to 0.007 µM (1.8-fold). The first is the more potent here.

Compared with `O=S(=O)(CC1CC1)c1ccc(Cc2nc3c(Cl)c(-c4ccccc4OC(F)(F)F)c(Cl)cc3[nH]2)c(Cl)c1` [Example 90, 4,6-dichloro-2-(2-chloro-4-((cyclopropylmethyl)sulfonyl)benzyl)-5-(2-(trifluoromethoxy)phenyl)-1H-benzo[d]imidazole], `CS(=O)(=O)c1ccc(Cc2nc3c(Cl)c(-c4ccccc4OC(F)(F)F)c(Cl)cc3[nH]2)c(Cl)c1` [Example 101, 4,6-dichloro-2-(2-chloro-4-(methylsulfonyl)benzyl)-5-(2-(trifluoromethoxy)phenyl)-1H-benzo[d]imidazole] is 20-fold higher in IC50: 0.004 µM for the first, 0.082 µM for the second. The first is the more potent here.

`O=S(=O)(CC1CC1)c1ccc(C(CO)c2nc3c(Cl)c(-c4ccccc4OC(F)(F)F)c(Cl)cc3[nH]2)c(Cl)c1` (stereo not shown) [Example 91, 2-(2-chloro-4-((cyclopropylmethyl)sulfonyl)phenyl)-2-(4,6-dichloro-5-(2-(trifluoromethoxy)phenyl)-1H-benzo[d]imidazol-2-yl)ethanol] and `N#Cc1ccccc1-c1c(Cl)cc2[nH]c(C(CO)c3ccc(S(=O)(=O)CC4CC4)cc3)nc2c1Cl` (stereo not shown) [Example 96, 2-(4,6-dichloro-2-(1-(4-((cyclopropylmethyl)sulfonyl)phenyl)-2-hydroxyethyl)-1H-benzo[d]imidazol-5-yl)benzonitrile] are within 1.5-fold of each other in IC50: 0.14 µM for the first, 0.123 µM for the second.

`O=S(=O)(CC1CC1)c1ccc(Cc2nc3c(Cl)c(-c4ccccc4Cl)c(Cl)cc3[nH]2)cc1` [Example 93, 4,6-dichloro-5-(2-chlorophenyl)-2-(4-((cyclopropylmethyl)sulfonyl)benzyl)-1H-benzo[d]imidazole] and `N#Cc1ccccc1-c1c(Cl)cc2[nH]c(Cc3ccc(S(=O)(=O)CC4CC4)cc3)nc2c1Cl` [Example 95, 2-(4,6-dichloro-2-(4-((cyclopropylmethyl)sulfonyl)benzyl)-1H-benzo[d]imidazol-5-yl)benzonitrile] are within 1.5-fold of each other in IC50: 0.075 µM for the first, 0.065 µM for the second.

First: N#Cc1ccccc1-c1c(Cl)cc2[nH]c(C(O)c3ccc(S(=O)(=O)CC4CC4)cc3)nc2c1Cl (stereo not shown) [Example 97, 2-(4,6-dichloro-2-((4-((cyclopropylmethyl)sulfonyl)phenyl)(hydroxy)methyl)-1H-benzo[d]imidazol-5-yl)benzonitrile]
Second: CC(C)S(=O)(=O)c1ccc(C(O)c2nc3c(Cl)c(-c4ccccc4OC(F)(F)F)c(Cl)cc3[nH]2)cc1 (stereo not shown) [Example 106, (4-((iso-propyl)sulfonyl)phenyl)(4,6-dichloro-5-(2-(trifluoromethoxy)phenyl)-1H-benzo[d]imidazol-2-yl)methanol]
The IC50 of the first is 3-fold lower: 0.001 µM for the first, 0.003 µM for the second.

Compared with `CC(C)S(=O)(=O)c1ccc(Cc2nc3c(Cl)c(-c4ccccc4OC(F)(F)F)c(Cl)cc3[nH]2)cc1` [Example 104], `CCS(=O)(=O)c1ccc(Cc2nc3c(F)c(-c4ccccc4OC(F)(F)F)c(F)cc3[nH]2)cc1` [Example 108, 2-(4-(ethylsulfonyl)benzyl)-4,6-difluoro-5-(2-(trifluoromethoxy)phenyl)-1H-benzo[d]imidazole] is 11-fold lower in IC50: 0.337 µM for the first, 0.032 µM for the second.

Compared with `CC(C)S(=O)(=O)c1ccc(C(CO)c2nc3c(Cl)c(-c4ccccc4C(F)(F)F)c(Cl)cc3[nH]2)cc1` (stereo not shown) [Example 107], `CCS(=O)(=O)c1ccc(C(CO)c2nc3c(F)c(-c4ccccc4OC(F)(F)F)c(F)cc3[nH]2)cc1` (stereo not shown) [Example 109, 2-(4,6-difluoro-5-(2-(trifluoromethoxy)phenyl)-1H-benzo[d]imidazol-2-yl)-2-(4-(ethylsulfonyl)phenyl)ethanol] is 19-fold higher in IC50: 0.055 µM for the first, 1.04 µM for the second. The first is the more potent here.

Compared with `CCS(=O)(=O)c1ccc(C(O)c2nc3c(F)c(-c4ccccc4OC(F)(F)F)c(F)cc3[nH]2)cc1` (stereo not shown) [Example 110, (4,6-difluoro-5-(2-(trifluoromethoxy)phenyl)-1H-benzo[d]imidazol-2-yl)(4-(ethylsulfonyl)phenyl)methanol], `CCS(=O)(=O)c1ccc(Cc2nc3c(F)c(-c4ccccc4C(F)(F)F)c(F)cc3[nH]2)cc1` [Example 111, 2-(4-(ethylsulfonyl)benzyl)-4,6-difluoro-5-(2-(trifluoromethyl)phenyl)-1H-benzo[d]imidazole] is 12-fold lower in IC50: 0.698 µM for the first, 0.06 µM for the second.
